The nature of data set [1]: Stability of diluted topotecan solutions in plastic bags at room temperature. Format: physicochemical. As to the method: Solution Preparation--When the 5 mg vial is reconstituted with 2 ml of Sterile Water for Injection, USP, each ml will contain 2.5 mg of topotecan as the base and 50 mg of mannitol, USP. Topotecan must not be diluted or mixed with buffered solutions because of solubility and stability considerations.
Stability--Shelf life surveillance of the intact vials is ongoing. Because the single-use lyophilized dosage form contains no antibacterial preservatives, it is advised that the reconstituted solution be discarded eight hours after initial entry into the vial. Futher dilutions of the reconstituted solution to concentrations of 0.02 mg/ml and 0.1 mg.ml in 5% Dextrose Injection, USP, ("D5W") or 0.9% Sodium Chloride Injection, USP, ("NS") in plastic bags stored at room temperature yielded the following stability results: […]

The nature of data set [2]: Stability of diluted topotecan in a hang-bag. As to conditions: 24 hours. Format: physicochemical. As to the method:
Topotecan diluted in saline (10 ug/ml or 500 ug/ml) or dextrose (6.7 ug/ml or 330 ug/ml) is stable in a hang-bag for 24 hours with at least 95% recovery.

The subject of another data set is ovarian cancer. Description: Treatment of a human patient with ovarian cancer, tumor size regression evaluated by CAT scan. As to conditions: one platinum-refractory patient, 1.5 mg/m^2/day i.v. for five consecutive days, sustained at least until the tenth treatment. Format: in vivo. As to the method:
One human patient with ovarian cancer, who was refractory to two previous platinum-containing regimens (i.e., cisplatin-cyclophosphamide combination regimen and treatment with single agent carboplatin), received a course of therapy comprising intravenous administration of 1.5 mg of topotecan/m^2 of body surface area per day for five consecutive days. This course of therapy was repeated […] nine more times to date at twenty-one day intervals (from the date of initiation of therapy) for a total of ten treatments. Tumor size regression was evaluated by CAT (computerized axial tomography) scan. […] At least until the tenth treatment, this clinically significant response was sustained, i.e., a greater than fifty percent (50%) tumor size regression was obtained.

As to `CC[C@@]1(O)C(=O)OCc2c1cc1n(c2=O)Cc2cc3c(CN(C)C)c(O)ccc3nc2-1` [Topotecan, (S)-10[(dimethylamino)methyl]-4-ethyl-4,9-dihydroxy-1 H-pyrano[3',4':6,7]indolizino[1,2-b]quinolone-3,14(4 H,12 H)-dione], the “Percentage of Initial Topotecan Remaining in Solution” value in data set [1] (D5W, 0.02 mg/ml, 0 hrs) is recorded as 100.00%; in data set [1] (D5W, 0.02 mg/ml, 6 hrs) it was 99.29%; in data set [1] (D5W, 0.02 mg/ml, 24 hrs), 102.30%; in data set [1] (D5W, 0.02 mg/ml, 48 hrs) it was 101.98%; in data set [1] (D5W, 0.1 mg/ml, 0 hrs) it was 100.00%; in data set [1] (D5W, 0.1 mg/ml, 6 hrs), 99.68%. Moreover, the “Percentage of Initial Topotecan Remaining in Solution” value in data set [1] (D5W, 0.1 mg/ml, 24 hrs) worked out at 98.16%; in data set [1] (D5W, 0.1 mg/ml, 48 hrs) it was 97.91%; in data set [1] (NS, 0.02 mg/ml, 0 hrs) it was 100.00%; in data set [1] (NS, 0.02 mg/ml, 6 hrs), 98.58%; in data set [1] (NS, 0.02 mg/ml, 24 hrs), 96.01%; in data set [1] (NS, 0.02 mg/ml, 48 hrs) it was 102.03%. In addition, the “Percentage of Initial Topotecan Remaining in Solution” value in data set [1] (NS, 0.1 mg/ml, 0 hrs) was determined as 100.00%; in data set [1] (NS, 0.1 mg/ml, 6 hrs) it was 97.71%; in data set [1] (NS, 0.1 mg/ml, 24 hrs), 98.30%; in data set [1] (NS, 0.1 mg/ml, 48 hrs), 98.35%. Moreover, the “recovery (stable in a hang-bag)” value is reported as “at least 95%” in data set [2] (dextrose, 6.7 ug/ml or 330 ug/ml) and “at least 95%” in data set [2] (saline, 10 ug/ml or 500 ug/ml). Moreover, in the data set on ovarian cancer, the “tumor size regression, sustained” value was > 50%.

For the origin of these results see US5674872A, “Treatment of ovarian cancer” (SmithKline Beecham Corporation, priority 1995, dated 1997).
